Here are results for 11 compounds from US20230133169A1, “EGFR INHIBITOR, COMPOSITION, AND METHOD FOR PREPARATION THEREOF” (BETTA PHARMACEUTICALS CO., LTD, priority 2019, published 2023).

The target in one data set is EGFR Δ19del/T790M/C797S (Homo sapiens, UniProt P00533, T790M/C797S, form not given). Briefly: EGFR Δ19del/T790M/C797S kinase test (mobility variation analysis, Caliper EZ Reader). It is filed as biochemical. Conditions: kinase inhibition, top concentration 300 nM. The method, then: Mobility variation analysis was performed to determine the affinity of the compound for EGFRΔ19del/T790M/C797S. The enzymatic reaction scheme is as follows:
1. Prepare 1*kinase buffer as follows.
2. Prepare compound concentration gradient: The test compound was tested at concentration of 300 nM, diluted with 100% DMSO solution in a 96-well plate to 100-fold final concentration, and then diluted to 3-fold concentration with Precision.10. Compound at each concentration was further diluted to 5-fold final concentration of intermediate dilution.
3. Add 5 μL of each prepared intermediate dilution compounds to the compound wells of 384-well plate respectively, and test the repeated wells of each concentration; add 5 μL of 5% DMSO into the negative control well and the positive control well respectively.
4. Prepare 2.5-fold final concentration of kinase solution with 1×Kinase buffer.
5. Add 10 μL of 2.5-fold final concentration of kinase solution to the compound well and the positive control well; add 10 μL of 1×Kinase buffer to the negative control well.
6. Centrifuge at 1000 rpm for 30 s, shake the reaction plate for well mixing, and then incubate at room temperature for 10 minutes.
7. Prepare a mixture of ATP and Kinase substrate (5-FAM-EEPLYWSFPAKKK-CONH2) at 2.5-fold final concentration with 1×Kinase buffer.
8. Add 10 μL mixture of ATP and substrate at 2.5-fold final concentration to start reaction.
9. Centrifuge the 384-well plate at 1000 rpm for 30 s, shake it well and then incubate it at room temperature for corresponding time.
10. Add 30 μL of stop detection solution to stop the kinase reaction, centrifuge at 1000 rpm for 30 s, and shake it well.
11. Read conversion rate with Caliper EZ Reader.
Convert the conversion rate to inhibition rate:
inhibition %=(max−conversion % sample)/(max−min)*100.
“max”: Mean value of negative control wells; “min”: Mean value of positive control wells; conversion % sample: Sample conversion reading.
GraphPad Prism 5 was used for % inhibition curve fitting to obtain the IC50 value.
The calculation formula: Y=inhibition %_min+(inhibition %_max−inhibition %_min)/(1+(IC50/X)^slope). wherein, Y is inhibition %; X is concentration of compound to be tested.

Data set [1] deals with Ba/F3-Δ19del/T790M/C797S cells (Homo sapiens, UniProt P00533, T790M/C797S, cells depend on it, form not given). Briefly: Ba/F3-Δ19del/T790M/C797S cell proliferation assay (CellTiter Glo). Conditions: 72 hours, CTG luminescence, read-out: BaF3 Δ19del/T790M/C797S IC50. It is filed as cell-based. The procedure: (§1) RPMI 1640, 10% FBS and 1% PS; DMEM, 10% FBS and 1% PS
(§2) a) The medium was preheated in a 37° C. water bath in advance.
(§3) b) Remove the cryogenic vials from the liquid nitrogen tank, quickly put it into a 37° C. water bath, and completely melt it in 1 min.
(§4) c) Transfer the cell suspension to a 15 mL centrifuge tube containing 8 mL of medium, and centrifuge at 1000 rpm for 5 min.
(§5) d) Discard the supernatant, resuspend the cells in 1 mL of culture medium, transfer it to a 75 cm^2 flask containing 15 mL of culture medium, and culture the cells in a incubator with 5% CO2 at 37° C.
(§6) b) Collect the cells in a 15 mL centrifuge tube and centrifuge at 1000 rpm for 5 min. Discard the supernatant, count to make the cell density at 1×10^4 cells/mL, and then place it in a incubator with 5% CO2 at 37° C.
(§7) a) Dilute the test compound (20 mM stock solution) to 10 mM with 100% DMSO as the starting concentration, and then serially dilute 3 times with a “9+0” concentration in 96-well dilution plate (Cat #P-05525, Labcyte);
(§8) b) Dilute compound solution thereof to 1:100 in medium to prepare 10-fold working solution.
(§9) a) Centrifuge the growth cells in logarithmic phase at 1000 rpm for 5 minutes, resuspend the cells in culture medium, and then count the cells;
(§10) b) Inoculate the cells into a 96-well cell culture plate with a density of 2000 cells/well;
(§11) a) 15 μl of compounds prepared at step 2 were added to cell plate, the final concentrations were […], 370.4, 123.5, 41.2, 13.7, 4.6, 1.5 and 0 nM, and the final concentration of DMSO was 0.1%. The blank control well was a culture medium (0.1% DMSO);
(§12) b) Incubate cells in an incubator for another 72 hours;
(§13) a) Take out the 96-well cell culture plate and add 50 μl of CTG reagent (CellTiter Glo kit, promega, Cat#G7573);
(§14) b) Shake the plate for 2 minutes and let cool at room temperature for 10 minutes;
(§15) c) Read luminous signal value with PerkinElmer reader.
(§16) The data were analyzed by GraphPad Prism 6.0 software to obtain the fitting curve of compound activity.
(§17) Fitting compound IC50 from nonlinear regression equation:
(§18) Y=Min+(Max−Min)/(1+10^((Log IC50−X)*slope));
(§19) X: Logarithm of compound concentration; Y: luminous signal value.
(Cellular ATP, detected with luciferase, serves as a proxy for viable cell number.)

For a further data set, the system named is A431 wild-type cell line. Briefly: A431 wild-type cell proliferation assay (CellTiter Glo). The format is cell-based. Particulars: Homo sapiens, A-431, 72 hours, CTG luminescence. The procedure: as §1, §2, §3, §4, §5, §6, §7, §8, §9, §10, §11, §12, §13, §14, §15, §16, §17, §18, §19
A short description of data set [2]: Pharmacokinetic experiment in rats, oral administration. It is filed as in vivo. Conditions: Sprague-Dawley (SD), rat, 5 mg/kg, male SD rats, 5 mpk, plasma. The procedure:
Test 3 Pharmacokinetic Experiment
Male SD rats (3 rats in each group) were administered orally, and fasted overnight from at least 12 hours before administration to 4 hours after administration before the experiment. Blood was taken from the orbital vein. The time points of blood collection for oral administration were: 15 min, 30 min, 1 hr, 2 hr, 4 hr, 7 hr and 24 hr, the dosage of administration was 5 mpk, and the blood collection volume was 300 μL. After anticoagulant treatment with 2.0% EDTA, the blood was centrifuged at 4000 rpm for 5 min, and then about 100 μL was taken and placed for testing at −20° C. Plasma samples were analyzed by liquid chromatography tandem mass spectrometry (LC-MS/MS). The plasma concentration-time data of individual animals were analyzed by the non-compartment model of WinNonlin (V4.1, Pharsight) software, and the pharmacokinetic parameters of the compounds tested were calculated.

Chain of EGFR Δ19del/T790M/C797S (P00533 with tags, fused parts or gaps DEL746-750/T790M/C797S, form open): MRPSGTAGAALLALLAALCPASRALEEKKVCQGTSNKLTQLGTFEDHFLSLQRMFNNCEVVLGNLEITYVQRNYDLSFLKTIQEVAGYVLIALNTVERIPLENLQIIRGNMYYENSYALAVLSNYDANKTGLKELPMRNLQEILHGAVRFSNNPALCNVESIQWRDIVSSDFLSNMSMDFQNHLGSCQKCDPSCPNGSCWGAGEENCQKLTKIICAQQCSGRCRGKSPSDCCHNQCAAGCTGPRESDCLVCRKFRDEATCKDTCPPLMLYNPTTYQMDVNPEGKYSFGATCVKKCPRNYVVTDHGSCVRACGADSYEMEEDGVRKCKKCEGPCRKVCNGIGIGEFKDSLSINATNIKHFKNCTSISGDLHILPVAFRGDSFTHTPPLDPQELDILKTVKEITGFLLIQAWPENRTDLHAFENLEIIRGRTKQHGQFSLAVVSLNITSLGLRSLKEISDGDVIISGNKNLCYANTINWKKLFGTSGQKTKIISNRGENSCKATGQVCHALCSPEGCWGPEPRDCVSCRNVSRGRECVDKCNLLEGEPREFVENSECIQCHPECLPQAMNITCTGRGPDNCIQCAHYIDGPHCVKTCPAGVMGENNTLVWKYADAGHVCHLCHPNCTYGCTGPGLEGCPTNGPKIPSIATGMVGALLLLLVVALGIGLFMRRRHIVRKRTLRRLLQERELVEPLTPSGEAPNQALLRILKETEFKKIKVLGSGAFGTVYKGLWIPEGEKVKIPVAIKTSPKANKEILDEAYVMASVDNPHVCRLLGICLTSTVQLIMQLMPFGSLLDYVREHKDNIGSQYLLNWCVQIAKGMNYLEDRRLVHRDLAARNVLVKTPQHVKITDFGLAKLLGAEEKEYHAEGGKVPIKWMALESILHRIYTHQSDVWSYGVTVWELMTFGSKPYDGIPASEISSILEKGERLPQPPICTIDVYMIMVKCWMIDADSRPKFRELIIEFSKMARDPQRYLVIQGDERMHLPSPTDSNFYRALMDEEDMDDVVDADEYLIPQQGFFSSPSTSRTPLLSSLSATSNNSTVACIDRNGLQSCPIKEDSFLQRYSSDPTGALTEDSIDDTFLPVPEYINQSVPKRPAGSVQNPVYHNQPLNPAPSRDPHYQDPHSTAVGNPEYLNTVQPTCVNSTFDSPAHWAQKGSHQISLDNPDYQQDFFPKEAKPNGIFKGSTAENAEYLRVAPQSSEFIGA
Chain of Ba/F3-Δ19del/T790M/C797S cells (P00533 with tags, fused parts or gaps DEL746-750/T790M/C797S, form open): as above

As usually defined, the IC50 is the midpoint of a concentration-inhibition curve. One may read the AUC(0-t) as the area under the concentration-time curve up to a stated or last time point. The low end stands for less exposure, the high end for more exposure. Usually Cmax stands for the peak of the concentration-time curve. In turn, `CCc1cc(Nc2ncc(Br)c(Nc3ccc(C4CC4)cc3P(C)(C)=O)n2)c(OC)cc1N1CCC(N2CCN(C)CC2)CC1` [Compound 1, (2-((5-Bromo-2-((5-ethyl-2-methoxy-4-(4-(4-methylpiperazin-1-yl)piperidin-1-yl)phenyl)amino)pyrimidin-4-yl)amino)-5-cyclopropylphenyl)dimethylphosphine oxide] registered a half-maximal inhibitory concentration (IC50) against EGFR Δ19del/T790M/C797S of 0.3 nM. Besides, the GI50 in data set [1] was found to be 1.2 nM. In addition, in the data set on A431 wild-type cell line, half-maximal inhibition (IC50) required 682 nM. In data set [2], this compound displayed an exposure AUC(0-t) of 32900 ng·h/mL and a Cmax of 2100 ng/mL. Besides, the half-life in data set [2] (read-out: t½ (converted)) was 9.1 h.
`CCn1cc(-c2cc(Nc3ncc(Br)c(Nc4ccc(C5CC5)cc4P(C)(C)=O)n3)c(OC)cc2N2CCC(N3CCN(C)CC3)CC2)cn1` [Compound 2]: the IC50 on EGFR Δ19del/T790M/C797S was found to be 0.4 nM; in the data set with A431 wild-type cell line, 268 nM. Moreover, the GI50 in data set [1] is 7.2 nM.
Taken in the same sequence, the figures for `CCn1cc(-c2cc(Nc3ncc(OC)c(Nc4ccc(C5CC5)cc4P(C)(C)=O)n3)c(OC)cc2N2CCC(N3CCN(C)CC3)CC2)cn1` [Compound 3, (5-Cyclopropyl-2-((2-((5-(1-ethyl-1H-pyrazol-4-yl)-2-methoxy-4-(4-(4-methylpiperazin-1-yl)piperidin-1-yl)phenyl)amino)-5-methoxypyrimidin-4-yl)amino)phenyl)dimethylphosphine oxide] were 0.4 nM, 830 nM and 55.4 nM.
As for `COc1cc(N2CCC(N3CCN(C)CC3)CC2)ccc1Nc1ncc(Cl)c(Nc2ccc(C3CC3)cc2P(C)(C)=O)n1` [Compound 4], on EGFR Δ19del/T790M/C797S, the IC50 amounted to 1.2 nM.
Consider `CCc1cc(Nc2ncc(OC)c(Nc3ccc(C4CC4)cc3P(C)(C)=O)n2)c(OC)cc1N1CCC(N2CCN(C)CC2)CC1` [Compound 5], for which, at EGFR Δ19del/T790M/C797S, the IC50 stood at 1.6 nM. The GI50 in data set [1] stood at 302 nM.
In the case of `CCc1cc(Nc2ncc(Br)c(Nc3ccc(C4CCOCC4)cc3P(C)(C)=O)n2)c(OC)cc1N1CCC(N2CCN(C)CC2)CC1` [Compound 6, (2-((5-Bromo-2-((5-ethyl-2-methoxy-4-(4-(4-methylpiperazin-1-yl)piperidin-1-yl)phenyl)amino)pyrimidin-4-yl)amino)-5-(tetrahydro-2H-pyran-4-yl)phenyl)dimethylphosphine oxide], the results for the IC50 against EGFR Δ19del/T790M/C797S and in the data set with A431 wild-type cell line were 0.7 nM and 674 nM, respectively. Further, the GI50 in data set [1] was 15.6 nM.
The matching figures for `CCc1cc(Nc2ncc(Cl)c(Nc3ccc(C4CCCC4)cc3P(C)(C)=O)n2)c(OC)cc1N1CCC(N2CCN(C)CC2)CC1` [Compound 7, (2-((5-Chloro-2-((5-ethyl-2-methoxy-4-(4-(4-methylpiperazin-1-yl)piperidin-1-yl)phenyl)amino)pyrimidin-4-yl)amino)-5-cyclopentylphenyl)dimethylphosphine oxide]: 1.1 nM, 1400 nM and 38.3 nM.
Taken in the same sequence, the figures for `CCc1cc(Nc2ncc(Br)c(Nc3ccc(N4CCOCC4)cc3P(C)(C)=O)n2)c(OC)cc1N1CCC(N2CCN(C)CC2)CC1` [Compound 8] were 0.3 nM, 886 nM and 30.4 nM.
Taken in the same sequence, the figures for `COc1cc(N2CCC(N3CCN(C)CC3)CC2)c(-c2ccn(C)c2)cc1Nc1ncc(Br)c(Nc2ccc(C3CC3)cc2P(C)(C)=O)n1` [Compound 9, (2-((5-Bromo-2-((2-methoxy-5-(1-methyl-1H-pyrrol-3-yl)-4-(4-(4-methylpiperazine-1-yl)piperidin-1-yl)phenyl)amino)pyrimidin-4-yl)-amino)-5-cyclopropylphenyl)dimethylphosphine oxide] were 0.3 nM, 604 nM and 5.2 nM.
Regarding `COc1cc(N2CCC(N3CCN(C)CC3)CC2)c(C)cc1Nc1ncc(Br)c(Nc2ccc(C3CC3)cc2P(C)(C)=O)n1` [Compound 10, (2-((5-Bromo-2-((2-methoxy-5-methyl-4-(4-(4-methylpiperazin-1-yl)piperidin-1-yl)phenyl)Amino)pyrimidin-4-yl)amino)-5-cyclopropylphenyl)dimethylphosphine oxide], the IC50 came out at 0.3 nM against EGFR Δ19del/T790M/C797S and 543 nM in the data set with A431 wild-type cell line. Further, the GI50 in data set [1] was 9.7 nM.
`COc1cc(N2CCC(N3CCN(C)CC3)CC2)ccc1Nc1ncc(Cl)c(Nc2ccc(C)cc2P(C)(C)=O)n1` [Control example 1, reference compound] returned an IC50 against EGFR Δ19del/T790M/C797S of 2.7 nM. Besides, the GI50 in data set [1] turned out to be 49.9 nM.
